Like-named read-outs stand apart in the source and are kept apart here.
Assays:
[1] = target: wtERBB2 (Homo sapiens (Human), UniProt P04626); assay: HotSpot radiometric kinase activity assay, wtERBB2; format: biochemical; conditions: 30 nM wtERBB2, 10 μM 33P-ATP, 20 min preincubation, 2 hours, read-out: HER2 WT IC50
Description: (§1) The purpose of the wtERBB2, ERBB2-A775_G776insYVMA (ERBB2YVMA), wtEGFR biochemical assay was to evaluate the inhibition (% inhibition and IC50 values) of the small molecule inhibitors by using the “HotSpot” radiometric kinase activity assay. HotSpot assays monitor the […] of kinase substrate by the radioactive gamma phosphate of adenosine triphosphate (33P-ATP) during biochemical reactions. HotSpot assays was performed in steps upon completion of the kinase reaction: deposition of a reaction mixture aliquot onto P81 ion exchange paper, extensive washing of the aforementioned P81 paper using phosphoric acid to remove unbound radiolabeled 33P-ATP from the P81 paper, and finally visualization and quantification of the dried P81 paper utilizing a phosphoimager. […] Typical reaction solutions (10 μL final reaction volume) contained the following buffer conditions: 20 mM Hepes (pH 7.5), 10 mM MgCl2, 1 mM EGTA, 0.01% Brij35, 0.02 mg/mL BSA, 0.1 mM Na3VO4, 2 mM DTT, 1% DMSO. The assay was primed by preparing a fresh 0.2 mg/mL solution of pEY (Sigma Cat: P7244) substrate in the reaction buffer and supplementing that solution with […] of MnCl2 as substrate cofactor (Sigma Cat: M9522). The kinase of interest was then added to the solution at the appropriate concentration (30 nM wtERBB2 from, or 20 nM ERBB2YVMA, or 4 nM wtEGFR) and gently mixed prior to delivery of compound in 100% DMSO by acoustic dispensing (Beckman Echo550). Compound, Kinase, and substrate were allowed to incubate for 20 min at room temperature prior to the initiation of the reaction by addition of 33P-ATP (PerkinElmer Cat: NEG602, final conc 10 μM). […] IC50 determinations were made from a plot of kinase activity as a function of inhibitor concentration fit to the 4-parameter IC50 equation with the enzyme concentration held constant using GraphPad Prism (San Diego).

[2] = target: wtEGFR (Homo sapiens (Human), UniProt P00533); assay: HotSpot radiometric kinase activity assay, wtEGFR; format: biochemical; conditions: 4 nM wtEGFR, 10 μM 33P-ATP, 20 min preincubation, 2 hours, read-out: EGFR WT IC50
Description: as §1

[3] = system: BaF3_HER2YVMA cells; assay: Cell growth inhibition assay, BaF3_HER2YVMA; format: cell-based; conditions: 72 h, read-out: HER2-YVMA IC50 (nM), cell growth inhibition
[4] = system: BaF3_HER2WT cells; assay: Cell growth inhibition assay, BaF3_HER2WT; format: cell-based; conditions: 72 h, 3 days treatment, CellTiterGlo 2.0, read-out: HER2 WT IC50 (nM), cell growth inhibition
[5] = system: BaF3_EGFRWT cells; assay: Cell growth inhibition assay, BaF3_EGFRWT; format: cell-based; conditions: 72 h, 80 ng/mL recombinant human EGF, 3 days treatment, CellTiterGlo 2.0, read-out: EGFR WT IC50 (nM), cell growth inhibition
[6] = BaF3_HER2YVMA cells, 3 days treatment, CellTiterGlo 2.0

Sequence of wtERBB2 (P04626 23-1255): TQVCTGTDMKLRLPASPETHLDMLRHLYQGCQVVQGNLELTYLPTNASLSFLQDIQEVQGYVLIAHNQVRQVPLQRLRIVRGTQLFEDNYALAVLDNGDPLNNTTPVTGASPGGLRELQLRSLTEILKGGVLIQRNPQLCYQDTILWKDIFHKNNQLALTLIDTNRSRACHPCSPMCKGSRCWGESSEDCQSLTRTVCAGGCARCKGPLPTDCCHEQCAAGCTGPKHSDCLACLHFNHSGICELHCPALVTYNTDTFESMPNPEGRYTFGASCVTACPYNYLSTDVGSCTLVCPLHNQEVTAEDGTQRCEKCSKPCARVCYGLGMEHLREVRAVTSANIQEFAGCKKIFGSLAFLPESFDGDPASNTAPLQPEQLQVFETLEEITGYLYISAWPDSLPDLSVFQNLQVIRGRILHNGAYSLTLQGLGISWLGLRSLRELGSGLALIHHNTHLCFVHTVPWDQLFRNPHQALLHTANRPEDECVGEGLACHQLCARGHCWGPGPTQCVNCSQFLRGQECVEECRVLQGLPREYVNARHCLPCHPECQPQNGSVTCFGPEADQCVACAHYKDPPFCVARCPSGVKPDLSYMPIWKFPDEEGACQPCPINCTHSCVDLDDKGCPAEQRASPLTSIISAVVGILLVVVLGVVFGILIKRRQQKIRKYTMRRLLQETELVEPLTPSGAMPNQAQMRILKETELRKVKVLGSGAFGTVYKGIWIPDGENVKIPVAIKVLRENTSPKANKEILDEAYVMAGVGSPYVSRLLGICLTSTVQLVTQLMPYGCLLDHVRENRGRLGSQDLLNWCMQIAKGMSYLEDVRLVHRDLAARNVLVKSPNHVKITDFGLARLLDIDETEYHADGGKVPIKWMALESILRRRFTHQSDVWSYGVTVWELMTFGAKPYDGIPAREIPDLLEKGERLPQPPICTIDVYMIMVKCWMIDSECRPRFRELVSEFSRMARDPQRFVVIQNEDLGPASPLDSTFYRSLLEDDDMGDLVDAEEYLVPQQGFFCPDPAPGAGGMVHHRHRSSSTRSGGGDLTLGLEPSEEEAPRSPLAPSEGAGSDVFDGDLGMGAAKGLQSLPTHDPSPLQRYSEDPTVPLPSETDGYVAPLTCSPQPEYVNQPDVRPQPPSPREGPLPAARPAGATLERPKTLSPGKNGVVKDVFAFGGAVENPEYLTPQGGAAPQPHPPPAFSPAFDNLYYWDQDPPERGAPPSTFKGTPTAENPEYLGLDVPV
Sequence of wtEGFR (P00533 25-1210): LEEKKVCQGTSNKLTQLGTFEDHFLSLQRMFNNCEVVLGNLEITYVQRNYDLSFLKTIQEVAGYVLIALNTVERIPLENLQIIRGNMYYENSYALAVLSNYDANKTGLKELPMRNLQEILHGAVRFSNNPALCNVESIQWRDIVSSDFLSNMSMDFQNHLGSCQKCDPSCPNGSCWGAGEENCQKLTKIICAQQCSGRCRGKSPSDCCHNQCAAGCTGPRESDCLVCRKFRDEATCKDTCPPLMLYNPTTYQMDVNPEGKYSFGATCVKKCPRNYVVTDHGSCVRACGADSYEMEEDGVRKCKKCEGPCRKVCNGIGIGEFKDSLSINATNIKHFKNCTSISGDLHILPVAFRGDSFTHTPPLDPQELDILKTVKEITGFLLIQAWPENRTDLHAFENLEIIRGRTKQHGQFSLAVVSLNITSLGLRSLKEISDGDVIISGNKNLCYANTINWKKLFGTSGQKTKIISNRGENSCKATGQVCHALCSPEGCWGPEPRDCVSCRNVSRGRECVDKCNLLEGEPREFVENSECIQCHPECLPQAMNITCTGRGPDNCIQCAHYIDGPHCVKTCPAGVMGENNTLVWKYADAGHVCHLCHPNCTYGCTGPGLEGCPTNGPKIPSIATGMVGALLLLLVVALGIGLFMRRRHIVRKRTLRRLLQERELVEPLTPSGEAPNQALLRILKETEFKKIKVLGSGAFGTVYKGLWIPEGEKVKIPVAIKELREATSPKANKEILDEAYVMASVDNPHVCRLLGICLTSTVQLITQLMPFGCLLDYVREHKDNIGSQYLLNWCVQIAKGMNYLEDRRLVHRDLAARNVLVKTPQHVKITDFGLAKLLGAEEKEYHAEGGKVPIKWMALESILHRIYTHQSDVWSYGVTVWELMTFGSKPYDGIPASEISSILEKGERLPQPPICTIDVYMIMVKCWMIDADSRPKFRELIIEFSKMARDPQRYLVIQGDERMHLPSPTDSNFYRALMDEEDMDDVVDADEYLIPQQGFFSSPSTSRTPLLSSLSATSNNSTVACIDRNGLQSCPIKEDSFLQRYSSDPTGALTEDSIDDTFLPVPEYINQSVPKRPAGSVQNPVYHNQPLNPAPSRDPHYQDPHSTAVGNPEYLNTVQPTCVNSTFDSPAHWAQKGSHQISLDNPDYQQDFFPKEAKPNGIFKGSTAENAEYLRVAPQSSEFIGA

Row | Structure (SMILES) | IC50 [1] | IC50 [2] | IC50 [3, 6] | IC50 [4] | IC50 [5] | IC50 [3]
1 | Cc1cc(Nc2ncnn3ccc(C4CN(C(=O)/C=C/CN5CCCC5)C4)c23)ccc1Oc1ccn2ncnc2c1 [Example 97, (E)-1-(3-(4-((4-([1,2,4]triazolo[1,5-a]pyridin-7-yloxy)-3-methylphenyl)amino)pyrrolo[2,1-f][1,2,4]triazin-5-yl)azetidin-1-yl)-4-(pyrrolidin-1-yl)but-2-en-1-one] | < 0.2 µM | < 0.2 µM |  | < 200 nM | 1500 to 5000 nM | < 200 nM
2 | C=CC(=O)N1CC(n2cc(-c3ccn4ncnc(Nc5ccc(Oc6ccn7ncnc7c6)c(C)c5)c34)cn2)C1 [Example 2, 1-(3-(4-(4-((4-([1,2,4]triazolo[1,5-a]pyridin-7-yloxy)-3-methylphenyl)amino)pyrrolo[2,1-f][1,2,4]triazin-5-yl)-1H-pyrazol-1-yl)azetidin-1-yl)prop-2-en-1-one] | < 0.2 µM | < 0.2 µM | < 200 nM | < 200 nM | 1500 to 5000 nM | 
3 | C=CC(=O)N1CCN(c2ccn3ncnc(Nc4ccc(Oc5ccn6ncnc6c5)c(C)c4)c23)CC1 [Example 6, 1-(4-(4-((4-([1,2,4]triazolo[1,5-a]pyridin-7-yloxy)-3-methylphenyl)amino)pyrrolo[2,1-f][1,2,4]triazin-5-yl)piperazin-1-yl)prop-2-en-1-one] | < 0.2 µM | < 0.2 µM | < 200 nM | < 200 nM | 500 to 1500 nM | 
4 | C=CC(=O)N1CCCN(c2ccn3ncnc(Nc4ccc(Oc5ccn6ncnc6c5)c(C)c4)c23)CC1 [Example 8, 1-(4-(4-((4-([1,2,4]triazolo[1,5-a]pyridin-7-yloxy)-3-methylphenyl)amino)pyrrolo[2,1-f][1,2,4]triazin-5-yl)-1,4-diazepan-1-yl)prop-2-en-1-one] | < 0.2 µM | < 0.2 µM | < 200 nM | < 200 nM | 500 to 1500 nM | 
5 | C=CC(=O)N1CCCC(c2ccn3ncnc(Nc4ccc(Oc5ccn6ncnc6c5)c(C)c4)c23)C1 (stereo not drawn) [Example 12, 1-(3-(4-((4-([1,2,4]triazolo[1,5-a]pyridin-7-yloxy)-3-methylphenyl)amino)pyrrolo[2,1-f][1,2,4]triazin-5-yl)piperidin-1-yl)prop-2-en-1-one] | < 0.2 µM | < 0.2 µM | < 200 nM | < 200 nM | 1500 to 5000 nM | 

Further lines, with some results ahead:

Row | IC50 [1] | IC50 [2] | IC50 [3, 6] | IC50 [4] | IC50 [5] | Structure (SMILES) | IC50 [3]
6 | < 0.2 µM | < 0.2 µM | < 200 nM | < 200 nM | 1500 to 5000 nM | Cc1cc(Nc2ncnn3ccc(C4CN(C(=O)/C=C/CN(C)C)C4)c23)ccc1Oc1ccc2c(c1)ncn2C [Example 101, (E)-4-(dimethylamino)-1-(3-(4-((3-methyl-4-((1-methyl-1H-benzo[d]imidazol-5-yl)oxy)phenyl)amino)pyrrolo[2,1-f][1,2,4]triazin-5-yl)azetidin-1-yl)but-2-en-1-one] | 
7 | < 0.2 µM | < 0.2 µM | < 200 nM | < 200 nM | 1500 to 5000 nM | Cc1cc(Nc2ncnn3ccc(C4CN(C(=O)/C=C/CN(C)C)C4)c23)ccc1Oc1ccn2ncnc2c1 [Example 1, (E)-1-(3-(4-((4-([1,2,4]triazolo[1,5-a]pyridin-7-yloxy)-3-methylphenyl)amino)pyrrolo[2,1-f][1,2,4]triazin-5-yl)azetidin-1-yl)-4-(dimethylamino)but-2-en-1-one] | 
8 | < 0.2 µM | < 0.2 µM | < 200 nM | < 200 nM | 500 to 1500 nM | C=CC(=O)N1CCC(c2ccn3ncnc(Nc4ccc(Oc5ccc6c(c5)ncn6C)c(C)c4)c23)CC1 [Example 113, 1-(4-(4-((3-methyl-4-((1-methyl-1H-benzo[d]imidazol-5-yl)oxy)phenyl)amino)pyrrolo[2,1-f][1,2,4]triazin-5-yl)piperidin-1-yl)prop-2-en-1-one] | 
9 | < 0.2 µM | < 0.2 µM | < 200 nM | < 200 nM | 1500 to 5000 nM | Cc1cc(Nc2ncnn3ccc(C4CN(C(=O)/C=C/CN5CCCCC5)C4)c23)ccc1Oc1ccn2ncnc2c1 [Example 94, (E)-1-(3-(4-((4-([1,2,4]triazolo[1,5-a]pyridin-7-yloxy)-3-methylphenyl)amino)pyrrolo[2,1-f][1,2,4]triazin-5-yl)azetidin-1-yl)-4-(piperidin-1-yl)but-2-en-1-one] | 
10 | < 0.2 µM | < 0.2 µM | 500 to 1500 nM | 200 to 500 nM | 1500 to 5000 nM | C=CC(=O)N1CC(c2ccn(-c3ccn4ncnc(Nc5ccc(Oc6ccn7ncnc7c6)c(C)c5)c34)n2)C1 [Example 10, 1-(3-(1-(4-((4-([1,2,4]triazolo[1,5-a]pyridin-7-yloxy)-3-methylphenyl)amino)pyrrolo[2,1-f][1,2,4]triazin-5-yl)-1H-pyrazol-3-yl)azetidin-1-yl)prop-2-en-1-one] | 
11 | < 0.2 µM | < 0.2 µM | 200 to 500 nM | < 200 nM | 1500 to 5000 nM | Cc1cc(Nc2ncnn3ccc(C4CCN(C(=O)/C=C/CN(C)C)C4)c23)ccc1Oc1ccn2ncnc2c1 (stereo not drawn) [Example 98, (E)-1-(3-(4-((4-([1,2,4]triazolo[1,5-a]pyridin-7-yloxy)-3-methylphenyl)amino)-pyrrolo-[2,1-f][1,2,4]triazin-5-yl)pyrrolidin-1-yl)-4-(dimethylamino)but-2-en-1-one] | 
12 | < 0.2 µM | < 0.2 µM | < 200 nM | < 200 nM | 200 to 500 nM | C=CC(=O)N1CCC(c2ccn3ncnc(Nc4ccc(Oc5ccn6ncnc6c5)c(C)c4)c23)CC1 [Example 7, 1-(4-(4-((4-([1,2,4]triazolo[1,5-a]pyridin-7-yloxy)-3-methylphenyl)amino)pyrrolo[2,1-f][1,2,4]triazin-5-yl)piperidin-1-yl)prop-2-en-1-one] | 

— patent publication US20250276983A1, “COMPOUNDS AND METHODS FOR MODULATING HER2” (IAMBIC THERAPEUTICS, INC., priority 2022, published 2025)
